Measured values taken from patent US20240261302A1, “METHODS OF TREATING NEURODEGENERATIVE DISEASES OR CONDITIONS” (FloraScience Inc., priority 2023, published 2024).
pEC50: −log10 of the molar value.

Columns and labels:
[1] = Iron (Fe^2+) Binding Assay (ferrozine method); conditions: 5 to 10 μM, compared to deferiprone 5 μM
Experimental: Iron (Fe^2+) Binding Assay. Ferrous iron binding was measured by the ferrozine method. Briefly, test samples at the desired concentrations were mixed with 5 μM ferrous sulfate (FeSO4) in 100 μL of 50 mM HEPES, pH 7.5 in a 96-well plate. After 2 min, 50 μL of 5 mM ferrozine was added and the optical absorbance at 562 nm was measured on a SpectraMax M5 microplate reader. Each sample was analyzed in eight wells per independent experiment (n=8). Iron binding capacities were presented as the percentage of the vehicle controls without (100%) or with iron (0%).

HT22 cells [2] = assay: Calcium Measurements (Fluo-4 AM, Rhod-2 AM); assay type: cell-based, mouse
Experimental: Calcium Measurements. HT22 cells were seeded onto 96-well black walled plates at a density of 5,000 cells/well in DMEM supplemented with 10% FBS and 1% antibiotics. After the desired treatments, Ca^2+ levels were detected with Fluo-4 AM (Ex/Em=494/516 nm) and Rhod-2 AM (Ex/Em=552/581 nm) calcium indicator dyes specific to cytosol and mitochondria, respectively. Fluorescence was measured on a SpectraMax M5 microplate reader. Experiments were performed according to the manufacturer's instructions. Data were normalized for total protein/well. Each condition was analyzed in sixteen wells per independent experiment (n=16). Results were presented as the percentage of the controls with vehicle alone. Results were verified by live-cell imaging under a fluorescence microscope.

HT22 cells [3] = assay: Reactive Oxygen Species Measurement (CellROX, MitoSOX); assay type: cell-based, mouse
Experimental: Reactive Oxygen Species Measurement. HT22 cells were seeded onto 96-well black walled plates at a density of 5,000 cells/well in DMEM supplemented with 10% FBS and 1% antibiotics. After the desired treatments, whole cell ROS and mitochondrial superoxide ROS were detected with CellROX Green reagent (Ex/Em=485/520 nm) and MitoSOX Red reagent (Ex/Em=510/580 nm), respectively. Experiments were performed according to the manufacturer's instructions. Fluorescence was measured on a SpectraMax M5 microplate reader. Data were normalized for total protein/well. Each condition was analyzed in sixteen wells per independent experiment (n=16). Results were presented as the percentage of the controls with vehicle alone. Results were verified by live-cell imaging under a fluorescence microscope.

[4] = tested on: SH-SY5Y neuroblastoma cells; assay: Mitochondrial Membrane Potential Assay (JC-10) in SH-SY5Y cells; assay type: cell-based; conditions: 4 hr
Experimental: SH-SY5Y neuroblastoma cells were cultured in 1:1 (v/v) DMEM/F12 medium (Invitrogen, Cat #11330032, Carlsbad, CA) supplemented with 1% non-essential amino acids (Invitrogen, Cat #11140050), 10% FBS, and 1% antibiotics including penicillin and streptomycin. Cell cultures were incubated at 37° C. in a fully humidified atmosphere containing 10% CO2.
(§1) Mitochondrial Membrane Potential Assay. Cells seeded at 5,000 cells/well onto 96-well black walled plates were treated with test compounds at the desired concentrations under the culture condition described above. The mitochondrial uncoupler FCCP at 2 μM was used as a reference control. After the desired treatments for 4 hr, the cells were subjected to a JC-10 mitochondrial membrane potential assay according to the manufacturer's instruction. Fluorescence intensities (Ex/Em=490/525 nm, and Ex/Em=540/590 nm) of each well were monitored on a SpectraMax M5 microplate reader. The ratio of fluorescence intensity (590/525 nm) was used to determine the mitochondrial membrane potential (ΔΨm). Decreasing ratios indicate mitochondrial membrane depolarization. Samples were analyzed in eight to sixteen wells per independent experiment (n=8-16). Results were verified by live-cell imaging under a fluorescence microscope.

CB1/CB2 receptors = conditions: cited from earlier work
HT22 cells [5] = assay: Mitochondrial Membrane Potential Assay (JC-10) in HT22 cells; assay type: cell-based, mouse; conditions: 5 μM, 4 hr, p<0.0001
Experimental: as §1

HT22 cells [6] = assay: Oxytosis Assay (glutamate-induced cell death, MTT); assay type: cell-based, mouse
Experimental: Oxytosis Assay. HT22 cells were seeded at 3,000 cells/well in 96-well tissue culture plates in DMEM plus 10% FBS and 1% antibiotics. After 24 hr of plating, the cells were pretreated with different concentrations of the test compounds or a vehicle control for 1 hr followed by coincubation with 5 mM glutamate to initiate the cell death cascade. After 16 hr of treatment, cell viability was measured by the 3−(4,5-dimethylthiazol-2-yl)-2,5-diphenyltetrazolium bromide (MTT) assay. Optical absorbance was measured at 570 nm on a SpectraMax M5 microplate reader. Samples were analyzed in eight to sixteen wells per independent experiment (n=8-16). Results were presented as the percentage of the controls with vehicle alone.

HT22 cells [7] = assay: Oxytosis/ferroptosis assay with erastin (Table 2); assay type: cell-based; conditions: Mus musculus, HT-22; erastin as inducer; method not given; read-out: Observed EC50 erastin
BV2 microglia = assay: Mitochondrial Membrane Potential Assay (JC-10) in BV2 cells; assay type: cell-based; conditions: 4 hr
Experimental: BV2 microglial cells were cultured in low glucose DMEM supplemented with GlutaMAX (Invitrogen, Cat #10567014, Carlsbad, CA), 1 mM sodium pyruvate, 10% FBS, and 1% antibiotics including penicillin and streptomycin. Cell cultures were incubated at 37° C. in a fully humidified atmosphere containing 10% CO2.
as §1

HT22 cells [8] = assay: Cellular Lipid Peroxidation Measurement (C11-BODIPY); assay type: cell-based, mouse
Experimental: Lipid Peroxidation MeasurementsHT22 cells were seeded onto 96-well black walled plates at a density of 3,000 cells/well in DMEM supplemented with 10% FBS and 1% antibiotics. After the desired treatments, cells were labeled with 2.5 μM C11-BODIPY 581/591 (oxidized form Ex/Em=488/520 nm) at 37° C. for 2 hr. Experiments were performed according to the manufacturer's instructions. Fluorescence was measured on a SpectraMax M5 microplate reader. Data were normalized for total protein/well. Each condition was analyzed in twelve wells per independent experiment (n=12). Results were presented as the percentage of the controls with vehicle alone. Results were verified by live-cell imaging under a fluorescence microscope.

Question: What does the source list for CCCCCc1cc(O)c2c(c1)OC(C)(C)c1ccc(C)cc1-2 [CBN, 6,6,9-Trimethyl-3-pentyl-benzo[c]chromen-1-ol]?
Answer: Fe^2+ binding [1]: did not show significant Fe^2+ binding; Ca^2+ in cytosol and mitochondria, compound alone (HT22 cells [2]; 5 μM, 16 hr): did not affect Ca^2+ influx; Ca^2+ levels in cytosol and mitochondria with RSL3 (HT22 cells [2]; pretreatment 1 hr, co-incubation with RSL3): maintained basal Ca^2+ levels; RSL3-induced ROS production at cellular and mitochondrial levels (HT22 cells [3]; 50 nM RSL3, 16 hr): suppressed; cellular and mitochondrial ROS (redox status), compound alone (HT22 cells [3]; 5 μM, 16 hr): did not affect the redox status of cells or mitochondria; decrease of ΔΨm [4]: also observed; activity at CB1/CB2 receptors (CB1/CB2 receptors): weak agonist; binding affinities compared to THC, fold lower (CB1/CB2 receptors; tissue- or cell-type specific): 10 to 100 fold; decrease of mitochondrial membrane potential (ΔΨm) (HT22 cells [5]): approximately 17%; glutamate-induced morphological changes (HT22 cells [6]; 5 μM pretreatment 1 hr, then 5 mM glutamate 16 hr): effectively prevented; pEC50 (HT22 cells [6]; Mus musculus, HT-22, 16 h, read-out: EC50 against oxytosis/ferroptosis induced by 5 mM glutamate (FIG. 2G)): 5.72; pEC50 (HT22 cells [7]): 5.60; decrease of ΔΨm (BV2 microglia): also observed; RSL3-induced cellular lipid peroxidation (HT22 cells [8]; 50 nM RSL3, 16 hr, p<0.0001): effectively suppressed; basal cellular lipid peroxidation, compound alone (HT22 cells [8]; CBN 5 μM, ferrostatin 10 μM, 16 hr): neither CBN (5 μM) nor ferrostatin (10 μM) alone changed basal levels of lipid peroxidation
